Laboratory results as given in patent publication US10709709B2, “Substituted carbonucleoside derivatives useful as anticancer agents” (Pfizer Inc., priority 2016, dated 2020).

Key:
[1] = system: A549 lung adenocarcinoma cells; assay: A549 proliferation assay (Cell Titer Glo); format: cell-based; settings: Homo sapiens, A549, 168 h, 7 days with compound, cell viability by Cell Titer Glo (ATP)
Description: A549 lung adenocarcinoma cells (American Type Culture Collection) were maintained in DMEM growth media (Life Technologies) supplemented with 10% v/v heat inactivated fetal bovine serum (Sigma) and cultured at 37° C., 5% CO2. Exponentially growing A549 cells were plated in 96-well black tissue culture treated plates (Corning) at a density of […] in a volume of 100 μl culture media and allowed to adhere overnight at 37° C., 5% CO2. The following day, compound plates were prepared by making nine-point 3.3-fold dilutions in DMSO with a top concentration of 10 mM. Compounds were further diluted in culture media and 11 μl was added to the cells (final top assay concentration was 10 μM and DMSO was 0.2%). Cells were incubated with compound at 37° C., 5% CO2 for 7 days with media and compound replacement on day 4. Cell viability was assayed on Day 7 by adding 100 μl Cell Titer Glo (Promega) reagent to the plate to measure the amount of ATP present in the cells. Luminescence was read using the Envision 2104 Multilabel Reader (Perkin Elmer). The 50% inhibitory concentration (IC50) was determined using a 4-parameter fit model normalized to the DMSO control in dose response.

[2] = target: PRMT5/MEP50 protein complex (Homo sapiens (Human), UniProt O14744); assay: PRMT5 biochemical assay (3H-SAM methylation of H4(1-21) peptide, filter plate scintillation); settings: 10 nM PRMT5/MEP50 complex, 200 nM H4(1-21) peptide, 1 uM SAM, 25 minute incubation at room temperature
PRMT5/MEP50 protein complex, sequence (O14744 other isoform, or with tags, fused parts or gaps): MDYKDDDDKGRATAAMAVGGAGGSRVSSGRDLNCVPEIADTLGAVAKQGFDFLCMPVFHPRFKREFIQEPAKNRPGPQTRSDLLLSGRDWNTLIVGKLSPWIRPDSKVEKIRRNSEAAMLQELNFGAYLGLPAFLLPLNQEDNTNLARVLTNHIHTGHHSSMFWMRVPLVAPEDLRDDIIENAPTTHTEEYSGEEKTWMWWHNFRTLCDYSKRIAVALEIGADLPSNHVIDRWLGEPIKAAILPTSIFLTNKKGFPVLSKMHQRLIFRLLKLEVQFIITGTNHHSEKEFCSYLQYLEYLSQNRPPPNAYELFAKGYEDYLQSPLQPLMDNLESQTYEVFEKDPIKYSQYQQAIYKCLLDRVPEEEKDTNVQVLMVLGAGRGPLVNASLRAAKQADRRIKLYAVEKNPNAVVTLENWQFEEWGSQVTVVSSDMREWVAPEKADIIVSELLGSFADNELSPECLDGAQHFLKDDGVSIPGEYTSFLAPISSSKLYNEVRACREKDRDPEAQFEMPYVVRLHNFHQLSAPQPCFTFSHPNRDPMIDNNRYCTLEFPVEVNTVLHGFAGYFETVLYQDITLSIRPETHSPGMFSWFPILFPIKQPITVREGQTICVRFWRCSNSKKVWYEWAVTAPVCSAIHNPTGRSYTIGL
PRMT5/MEP50 protein complex, sequence (Q9BQA1 whole entry partner): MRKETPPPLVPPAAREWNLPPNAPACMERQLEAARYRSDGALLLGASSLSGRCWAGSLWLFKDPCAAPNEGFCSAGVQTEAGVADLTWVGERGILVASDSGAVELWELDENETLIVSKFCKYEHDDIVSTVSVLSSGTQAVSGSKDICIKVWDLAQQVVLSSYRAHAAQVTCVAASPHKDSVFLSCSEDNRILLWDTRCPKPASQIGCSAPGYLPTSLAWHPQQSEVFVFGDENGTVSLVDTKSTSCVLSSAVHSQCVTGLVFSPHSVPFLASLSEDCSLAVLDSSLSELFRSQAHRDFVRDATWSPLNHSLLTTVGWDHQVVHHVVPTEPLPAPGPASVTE
Summary of the method: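 Human PRMT5/MEP50 complex (10 nM) methylating H4(1-21) peptide (200 nM) with 3H/unlabelled SAM (1 uM final) in pH 8.5 Tris buffer, 25 min at room temperature. Stopped with TCA, 3H-peptide captured on filter plates and scintillation-counted. IC50 from 4-parameter fit.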

| IC50 [1] | IC50 [2] | Structure (SMILES) |
| --- | --- | --- |
| 4840 nM | 2 nM | O[C@@H]1[C@H](O)[C@@H](Oc2cccc3c2CNCC3)C[C@H]1n1ccc2cncnc21 [Example 118, (1S,2S,3R,5S)-3-(7H-pyrrolo[2,3-d]pyrimidin-7-yl)-5-((1,2,3,4-tetrahydroisoquinolin-8-yl)oxy)cyclopentane-1,2-diol] |
| 3850 nM | 2 nM | CCc1cc2c(c(O[C@H]3C[C@@H](n4cc(F)c5c(N)ncnc54)[C@H](O)[C@@H]3O)c1)CNCC2 [Example 106, (1S,2S,3R,5S)-3-(4-amino-5-fluoro-7H-pyrrolo[2,3-d]pyrimidin-7-yl)-5-((6-ethyl-1,2,3,4-tetrahydroisoquinolin-8-yl)oxy)cyclopentane-1,2-diol] |
| 6810 nM | 4 nM | Cc1ncnc2c1ccn2[C@@H]1C[C@H](Oc2ccc(F)cc2CN)[C@@H](O)[C@H]1O [Example 66, (1S,2S,3S,5R)-3-(2-(aminomethyl)-4-fluorophenoxy)-5-(4-methyl-7H-pyrrolo[2,3-d]pyrimidin-7-yl)cyclopentane-1,2-diol] |
| 3570 nM | 3 nM | Cc1ncc2c(F)cn([C@@H]3C[C@H](Oc4cc(C#N)cc5c4CNCC5)[C@@H](O)[C@H]3O)c2n1 [Example 173, 8-(((1S,2S,3S,4R)-4-(5-fluoro-2-methyl-7H-pyrrolo[2,3-d]pyrimidin-7-yl)-2,3-dihydroxycyclopentyl)oxy)-1,2,3,4-tetrahydroisoquinoline-6-carbonitrile] |
| 248 nM | – | Cc1ncnc2c1ccn2[C@@H]1C[C@H](Oc2cc(C(F)F)cc3c2CNCCO3)[C@@H](O)[C@H]1O [Example 205, (1S,2S,3S,5R)-3-((8-(difluoromethyl)-2,3,4,5-tetrahydrobenzo[f][1,4]oxazepin-6-yl)oxy)-5-(4-methyl-7H-pyrrolo[2,3-d]pyrimidin-7-yl)cyclopentane-1,2-diol] |
| 140 nM | – | Cc1ncnc2c1ccn2[C@@H]1C[C@H](Oc2cc(OC(F)F)c(F)c3c2CNCC3)[C@@H](O)[C@H]1O [Example 200, (1S,2S,3S,5R)-3-((6-(difluoromethoxy)-5-fluoro-1,2,3,4-tetrahydroisoquinolin-8-yl)oxy)-5-(4-methyl-7H-pyrrolo[2,3-d]pyrimidin-7-yl)cyclopentane-1,2-diol] |
| – | 704 nM | Nc1ncnc2c1c(F)cn2[C@@H]1C[C@H]([C@@H](O)c2ccc(F)cc2)[C@@H](O)[C@H]1O [Example 26, (1R,2S,3R,5R)-3-(4-amino-5-fluoro-7H-pyrrolo[2,3-d]pyrimidin-7-yl)-5-[(R)-(4-fluorophenyl)(hydroxy)methyl]cyclopentane-1,2-diol] |
| – | > 200000 nM | Cc1nccc(O[C@@H]2C[C@H](Oc3cccc4c3CNCC4)[C@@H](O)[C@H]2O)n1 [Example 158, (1S,2R,3R,5S)-3-((2-methylpyrimidin-4-yl)oxy)-5-((1,2,3,4-tetrahydroisoquinolin-8-yl)oxy)cyclopentane-1,2-diol] |
| – | 1390 nM | Cc1nc(N)nc(N(C)[C@@H]2C[C@H]([C@@H](O)c3ccc(F)c(F)c3)[C@@H](O)[C@H]2O)n1 [Example 42, (1R,2S,3R,5R)-3-[(4-amino-6-methyl-1,3,5-triazin-2-yl)(methyl)amino]-5-[(R)-(3,4-difluorophenyl) (hydroxy)methyl]cyclopentane-1,2-diol] |
| – | 6 nM | Cc1ncnc2c1ccn2[C@@H]1C[C@H](Oc2cccc3c2CNC(C)C3)[C@@H](O)[C@H]1O (single isomer, unassigned) [Example 185] |
| – | 55 nM | CCOc1nc(O[C@H]2C[C@@H](n3ccc4c(C)ncnc43)[C@H](O)[C@@H]2O)c2c(c1F)CCNC2 [Example 192, (1S,2S,3S,5R)-3-((3-ethoxy-4-fluoro-5,6,7,8-tetrahydro-2,7-naphthyridin-1-yl)oxy)-5-(4-methyl-7H-pyrrolo[2,3-d]pyrimidin-7-yl)cyclopentane-1,2-diol] |
| – | 1280 nM | Cc1ncnc2c1ccn2[C@@H]1C[C@H](Oc2cccc3ccncc23)[C@@H](O)[C@H]1O [Example 172, (1S,2S,3S,5R)-3-(isoquinolin-8-yloxy)-5-(4-methyl-7H-pyrrolo[2,3-d]pyrimidin-7-yl)cyclopentane-1,2-diol] |
| – | 17100 nM | Cc1ncnc2c1ccn2[C@@H]1C[C@H]([C@@](C)(O)c2ccc(F)cc2)[C@@H](O)[C@H]1O [Example 20, (1S,2R,3S,5R)-3-[(1R)-1-(4-fluorophenyl)-1-hydroxyethyl]-5-(4-methyl-7H-pyrrolo[2,3-d]pyrimidin-7-yl)cyclopentane-1,2-diol] |
| – | 1670 nM | Cc1ncnc2c1ccn2[C@@H]1C[C@H](Oc2cccc3c2CCN(C)C3)[C@@H](O)[C@H]1O [Example 81, (1S,2S,3R,5S)-3-(4-methyl-7H-pyrrolo[2,3-d]pyrimidin-7-yl)-5-[(2-methyl-1,2,3,4-tetrahydroisoquinolin-5-yl)oxy]cyclopentane-1,2-diol] |

Continued, molecule first:

| Structure (SMILES) | IC50 [1] | IC50 [2] |
| --- | --- | --- |
| Cc1nc(N)c2c(F)cn([C@@H]3C[C@H](Oc4ccc(F)c5c4CNCC5)[C@@H](O)[C@H]3O)c2n1 [Example 126, (1S,2S,3R,5S)-3-(4-amino-5-fluoro-2-methyl-7H-pyrrolo[2,3-d]pyrimidin-7-yl)-5-((5-fluoro-1,2,3,4-tetrahydroisoquinolin-8-yl)oxy)cyclopentane-1,2-diol] | 498 nM | 1 nM |
| Cc1ncnc2c1ccn2[C@@H]1C[C@H](Oc2ccc(Cl)c(F)c2CN)[C@@H](O)[C@H]1O [Example 143, (1S,2S,3S,5R)-3-(2-(aminomethyl)-4-chloro-3-fluorophenoxy)-5-(4-methyl-7H-pyrrolo[2,3-d]pyrimidin-7-yl)cyclopentane-1,2-diol] | 1400 nM | 6 nM |
| Nc1ncnc2c1c(F)cn2[C@@H]1C[C@H](Oc2cc(Cl)cc3c2CNCC3)[C@@H](O)[C@H]1O [Example 102, (1S,2S,3R,5S)-3-(4-amino-5-fluoro-7H-pyrrolo[2,3-d]pyrimidin-7-yl)-5-((6-chloro-1,2,3,4-tetrahydroisoquinolin-8-yl)oxy)cyclopentane-1,2-diol] | 192 nM | 1 nM |
| Cc1cc2c(c(O[C@H]3C[C@@H](n4ccc5c(C)ncnc54)[C@H](O)[C@@H]3O)n1)CNCC2 [Example 181, (1S,2S,3S,5R)-3-((3-methyl-5,6,7,8-tetrahydro-2,7-naphthyridin-1-yl)oxy)-5-(4-methyl-7H-pyrrolo[2,3-d]pyrimidin-7-yl)cyclopentane-1,2-diol] | 1140 nM | 1 nM |
| Cc1cc2c(c(O[C@H]3C[C@@H](n4ccc5c(C)ncnc54)[C@H](O)[C@@H]3O)c1)CNCCO2 [Example 206, (1S,2S,3S,5R)-3-((8-methyl-2,3,4,5-tetrahydrobenzo[f][1,4]oxazepin-6-yl)oxy)-5-(4-methyl-7H-pyrrolo[2,3-d]pyrimidin-7-yl)cyclopentane-1,2-diol] | 6550 nM | – |
| Nc1ncnc2c1c(Br)cn2[C@@H]1C[C@H](Oc2cc(Cl)cc3c2CNCC3)[C@@H](O)[C@H]1O [Example 131] | 482 nM | – |
| Cc1ncnc2c1ccn2[C@@H]1C[C@H](Oc2ncnc3c2CNCC3)[C@@H](O)[C@H]1O [Example 156, (1S,2S,3R,5S)-3-(4-methyl-7H-pyrrolo[2,3-d]pyrimidin-7-yl)-5-((5,6,7,8-tetrahydropyrido[4,3-d]pyrimidin-4-yl)oxy)cyclopentane-1,2-diol] | – | 107 nM |
| Cc1ncnc2c1ccn2[C@@H]1C[C@H](Oc2ccccc2C#N)[C@@H](O)[C@H]1O [Example 64, 2-(((1S,2S,3S,4R)-2,3-dihydroxy-4-(4-methyl-7H-pyrrolo[2,3-d]pyrimidin-7-yl)cyclopentyl)oxy)benzonitrile] | – | > 200000 nM |
| Cc1ncnc2c1ccn2[C@@H]1C[C@H](Oc2ccc(Cl)cc2C(O)CN)[C@@H](O)[C@H]1O (stereo partly drawn) [Example 149, (1S,2S,3S,5R)-3-(2-(2-amino-1-hydroxyethyl)-4-chlorophenoxy)-5-(4-methyl-7H-pyrrolo[2,3-d]pyrimidin-7-yl)cyclopentane-1,2-diol] | – | 69 nM |
| Cc1ncnc2c1ccn2[C@@H]1C[C@H](Oc2ccc(F)cc2O)[C@@H](O)[C@H]1O [Example 136, (1S,2S,3S,5R)-3-(4-fluoro-2-hydroxyphenoxy)-5-(4-methyl-7H-pyrrolo[2,3-d]pyrimidin-7-yl)cyclopentane-1,2-diol] | – | 11100 nM |
| Cc1ncnc2c1ccn2[C@@H]1C[C@H](Oc2cccc3c2CCNC3)[C@@H](O)[C@H]1O [Example 80, (1S,2S,3R,5S)-3-(4-methyl-7H-pyrrolo[2,3-d]pyrimidin-7-yl)-5-((1,2,3,4-tetrahydroisoquinolin-5-yl)oxy)cyclopentane-1,2-diol] | – | 130 nM |
| Cc1ncnc2c1ccn2[C@@H]1C[C@H]([C@@H](O)c2ccc(Cl)c(F)c2)[C@@H](O)[C@H]1O [Example 161, (1S,2R,3R,5R)-3-((R)-(4-chloro-3-fluorophenyl)(hydroxy)methyl)-5-(4-methyl-7H-pyrrolo[2,3-d]pyrimidin-7-yl)cyclopentane-1,2-diol] | – | 201 nM |
| Cc1ncnc2c1ccn2[C@@H]1C[C@H]([C@H](C)O)[C@@H](O)[C@H]1O [Example 2, (1S,2R,3R,5R)-3-((S)-1-hydroxyethyl)-5-(4-methyl-7H-pyrrolo[2,3-d]pyrimidin-7-yl)cyclopentane-1,2-diol] | – | 8380 nM |
